Data set [1] can be described thus: Cytotoxicity against human HepG2 cells measured after 24 hrs by MTT assay. Format: toxicity, cell-based.
Data set [2] can be described thus: Selectivity index, ratio of CC50 for human HepG2 cells to EC50 for RSV infected in human HepG2 cells. It is filed as toxicity, cell-based. Conditions: read-out: Ratio CC50/EC50.
Data set [3] deals with Respiratory syncytial virus. Description: Antiviral activity against RSV infected in human HepG2 cells preincubated for 24 hrs followed by viral infection for 2 hrs and measured after 60 hrs by MTT assay. It is filed as functional, organism-based. For orientation: Formazan colour is commonly taken as a measure of viable cells.

From ChEMBL document CHEMBL5634111, “Design, synthesis, and anti-respiratory syncytial virus potential of novel 3-(1,2,3-triazol-1-yl)furoxazine-fused benzimidazole derivatives” (Eur J Med Chem, 2023) come the findings set out here.

As usually defined, the CC50 is the concentration giving 50% cytotoxicity. A high value points to lower toxicity to the cells. In turn, `Brc1cc2nc3n(c2cc1Br)[C@H]1OC[C@H](n2cc(-c4ccccc4)nn2)[C@H]1OC3` came in with a CC50 at 24 h in data set [1] of 63.6 µM. In data set [1], `CCCCCCc1cn([C@H]2CO[C@H]3[C@@H]2OCc2nc4cc(Br)c(Br)cc4n23)nn1` had a CC50 at 24 h of 52.3 µM. Take `OCc1cn([C@H]2CO[C@H]3[C@@H]2OCc2nc4cc(Br)c(Br)cc4n23)nn1`: the CC50 at 24 h in data set [1] was determined as 104 µM. Still for that read-out and setting: then `Cc1c(Br)cc2nc3n(c2c1Br)[C@H]1OC[C@H](n2cc(-c4ccccc4)nn2)[C@H]1OC3`, with 53.3 µM. In general, EC50 refers to the concentration that produces a half-maximal response. Read a high EC50 as a need for much substance. Take `Brc1cc2nc3n(c2cc1Br)[C@H]1OC[C@H](n2cc(C4CC4)nn2)[C@H]1OC3`: the selectivity ratio in data set [2] is 6.39. Further, the EC50 in data set [3] turned out to be 6.26 µM. The molecule also gave a CC50 at 24 h in data set [1] of 40 µM. In data set [1], `CCOC(=O)c1cn([C@H]2CO[C@H]3[C@@H]2OCc2nc4cc(Br)c(Br)cc4n23)nn1` yielded a CC50 at 24 h of 26.9 µM. In the case of `OCCCc1cn([C@H]2CO[C@H]3[C@@H]2OCc2nc4cc(Br)c(Br)cc4n23)nn1`, in data set [1], the CC50 at 24 h was 150 µM.

Turning to `Brc1cc2nc3n(c2cc1Br)[C@H]1OC[C@H](n2cc(COc4ccccc4)nn2)[C@H]1OC3`, the selectivity ratio in data set [2] was found to be 5.73. In addition, in data set [3], the EC50 turned out to be 21.9 µM. For the same molecule, half-maximal cytotoxicity in data set [1] (CC50 at 24 h) was put at 121 µM. In turn, `OCCc1cn([C@H]2CO[C@H]3[C@@H]2OCc2nc4cc(Br)c(Br)cc4n23)nn1` returned a CC50 at 24 h in data set [1] of 70.1 µM. For `Cc1cn([C@H]2CO[C@H]3[C@@H]2OCc2nc4cc(Br)c(C)c(Br)c4n23)nn1`, in data set [2], the selectivity ratio is 6.68. The molecule also yielded an EC50 in data set [3] of 14.2 µM. Further, in data set [1], the CC50 at 24 h came out at 94.6 µM. The molecule `CCCCCc1cn([C@H]2CO[C@H]3[C@@H]2OCc2nc4cc(Br)c(Br)cc4n23)nn1` gave a CC50 at 24 h in data set [1] of 237 µM. Turning to `NC(=O)c1ncn([C@@H]2O[C@H](CO)[C@@H](O)[C@H]2O)n1` [RIBAVIRIN], the selectivity ratio in data set [2] is 29.2. This molecule gave an EC50 in data set [3] of 8.41 µM. For the same molecule, in data set [1], half-maximal cytotoxicity (CC50 at 24 h) was put at 246 µM.
